Test results as given in patent publication US11479551B2, “MTA-cooperative PRMT5 inhibitors” (Mirati Therapeutics, Inc., priority 2019, dated 2022).
Read-outs that look alike come from different tables or passages of the source.

How the values were obtained:
PRMT5/MEP50 complex [1] = target: T1, PRMT5/MEP50 complex (Homo sapiens (Human), UniProt O14744); assay: PRMT5:MEP50 HotSpot Assay (full-length histone H2A substrate, plus and minus MTA); format: biochemical; conditions: in the presence of 2 μM MTA
T1 sequence (O14744 2-637): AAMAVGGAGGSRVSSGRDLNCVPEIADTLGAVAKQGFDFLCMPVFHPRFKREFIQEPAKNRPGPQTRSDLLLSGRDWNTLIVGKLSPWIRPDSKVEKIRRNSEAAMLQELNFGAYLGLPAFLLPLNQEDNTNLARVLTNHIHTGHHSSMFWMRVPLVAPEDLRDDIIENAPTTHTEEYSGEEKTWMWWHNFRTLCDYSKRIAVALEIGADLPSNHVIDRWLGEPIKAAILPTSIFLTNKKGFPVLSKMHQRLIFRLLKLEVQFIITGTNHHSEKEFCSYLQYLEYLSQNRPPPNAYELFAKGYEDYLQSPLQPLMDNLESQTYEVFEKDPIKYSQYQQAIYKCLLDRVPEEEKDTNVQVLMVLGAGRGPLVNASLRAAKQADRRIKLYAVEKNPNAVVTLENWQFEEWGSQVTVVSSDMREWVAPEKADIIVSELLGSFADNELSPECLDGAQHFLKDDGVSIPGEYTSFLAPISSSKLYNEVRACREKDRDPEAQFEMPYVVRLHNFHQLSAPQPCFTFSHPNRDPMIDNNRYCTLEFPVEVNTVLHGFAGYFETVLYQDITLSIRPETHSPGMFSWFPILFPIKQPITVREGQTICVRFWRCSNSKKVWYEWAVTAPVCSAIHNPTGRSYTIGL
T1 sequence (Q9BQA1 2-342 partner): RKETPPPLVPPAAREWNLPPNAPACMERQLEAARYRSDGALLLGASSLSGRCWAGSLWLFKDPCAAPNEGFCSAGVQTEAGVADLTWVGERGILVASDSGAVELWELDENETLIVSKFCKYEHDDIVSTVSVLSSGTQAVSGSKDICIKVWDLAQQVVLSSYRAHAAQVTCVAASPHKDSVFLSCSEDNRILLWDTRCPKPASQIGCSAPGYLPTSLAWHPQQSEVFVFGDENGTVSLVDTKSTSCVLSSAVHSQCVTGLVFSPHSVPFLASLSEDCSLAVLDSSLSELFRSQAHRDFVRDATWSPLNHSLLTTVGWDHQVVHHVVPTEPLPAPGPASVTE
In short: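 Radiometric filter-binding format using recombinant full-length histone H2A as substrate. After the reaction was stopped, mixtures went onto filter paper and tritiated H2A was quantified by scintillation counting.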

HCT116 parental cells = assay: Proliferation assay (CellTiter-Glo, 10 days of treatment), HCT116 parental; format: cell-based
Experimental: (§1) Control samples were analyzed in parallel.
Briefly, on Day 0, 250 HCT116 parental or HCT116 homozygous MTAP knockout cell were seeded in 96 well plates in McCoy's 5A supplemented with 10% fetal bovine serum and pen/strep and the cells were incubated overnight at 37° C. plus 5% CO2.
The following day, cells were treated with DMSO vehicle control or a dose response of PRMT5 inhibitors and incubated at 37 C plus 5% CO2 for five days. On Day 6, the cells were trypsinized and split 1:10 into new 96-well plates with fresh medium containing the same concentration of PRMT5 inhibitor and incubated for an additional 5 days at 37° C. plus 5% CO^2.
On Day 11, the viability of the cells was measured using a CTG assay kit (CellTiter-Glo; Promega cat.no G7573) in accordance with the manufacturer's instructions. The IC50 values for each compound after 10 days of treatment were calculated using GraphPad PRISM software.

[2] = tested on: HCT116 homozygous MTAP knockout cells; assay: Proliferation assay (CellTiter-Glo, 10 days of treatment), HCT116 MTAP knockout; format: cell-based; conditions: read-out: Proliferation HCT116MTAP_KO IC50
In short: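 Cells (250/well) seeded in McCoy's 5A with 10% FBS, then treated the next day with a PRMT5 inhibitor dose response at 37 °C, 5% CO2. On day 6 they were split 1:10 into fresh medium with the same compound concentration. CellTiter-Glo viability was read on day 11 and IC50 taken after 10 days of treatment.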

[3] = tested on: PRMT5-dependent Symmetric Di-methyl Arginine signal in HCT116 parental cells; assay: SYM11 In-Cell Western, HCT116 parental; format: cell-based; conditions: 4 days of treatment, SYM11/DRAQ5 ratio
Experimental: as §1
Briefly, on Day 0, 2,000 HCT116 parental or HCT116 homozygous MTAP knockout cells were seeded in 96 well plates in McCoy's 5A supplemented with 10% fetal bovine serum and pen/strep and the cells were incubated overnight at 37° C. plus 5% CO2. The following day, cells were treated with DMSO vehicle control or a dose response of PRMT5 inhibitors, and incubated at 37° C. plus 5% CO^2 for four days.
After 4 days of treatment, the cells were fixed by adding 50 μl of 4% paraformaldehyde solution to each well and the cells were incubated for 20 min at room temperature. The paraformaldehyde solution was removed, 150 μl of ice-cold methanol was added and the plate was placed −20° C. for 10 minutes. The methanol was removed, 150 μl of Odyssey Blocking buffer+0.05% Tween20 was added and the plate was incubated at room temperature with shaking for one hour.
The primary SYM11 antibody solution was removed by aspiration and the wells were washed three consecutive times with phosphate buffered saline containing 0.1% Tween-20 (PBST).
The secondary antibody solution was removed by aspiration and the wells were washed three consecutive times with PB ST.
The SYM11 signal and the DRAQ5 signal were quantified using a Li-Cor Odyssey machine reading at […], respectively. The SYM11/DRAQ5 ratio was used to calculate the inhibition of Symmetric Dimethyl Arginine as percent of DMSO control.

[4] = tested on: PRMT5-dependent Symmetric Di-methyl Arginine signal in HCT116 homozygous MTAP knockout cells; assay: SYM11 In-Cell Western, HCT116 MTAP knockout; format: cell-based; conditions: HCT116 homozygous MTAP knockout cells, 4 days of treatment, SYM11/DRAQ5 ratio, read-out: In-cell-Western (SYM11) HCT116 MTAP_KO IC50
PRMT5/MEP50 complex [5] = target: T1, PRMT5/MEP50 complex; assay: PRMT5:MEP50 FlashPlate Assay (histone H4 peptide substrate, plus and minus MTA); format: biochemical
Experimental: The PRMT5 inhibitory activity of compounds of the present invention was determined using either a PRMT5:MEP50 FlashPlate Assay (Reaction Biology Corporation) or a PRMT5:MEP50 HotSpot Assay (Reaction Biology Corporation).
1. PRMT5:MEP50 FlashPlate Assay

IC50 (PRMT5/MEP50 complex [1]; read-out: IC50 + 2 μM MTA) [nM] | IC50 [2] [nM] | IC50 [4] [nM] | IC50 (PRMT5/MEP50 complex [5]; IC50 + 2 μM MTA (nM), in the presence of 2 μM MTA) [nM] | IC50 (PRMT5/MEP50 complex [5]; in the absence of MTA, read-out: IC50) [nM] | IC50 ([2]; Homo sapiens, HCT-116, 240 h) [nM] | IC50 ([4]; Homo sapiens, HCT-116, 96 h) [nM] | IC50 (PRMT5/MEP50 complex [1]; IC50 + 2 μM MTA) [nM] | Compound | IC50 (HCT116 parental cells) [nM] | IC50 [3] [nM] | IC50 (HCT116 parental cells; Homo sapiens, HCT-116, 240 h) [nM] | IC50 ([3]; Homo sapiens, HCT-116, 96 h) [nM]
111 | 224 | 73 |  |  |  |  |  | Cn1ncc(-c2ccc3c(=O)[nH]nc(CN)c3c2)c1-c1c(F)cc2ccccc2c1C#N (single isomer, unassigned) [Example 16-2] | 5920 | > 1000 |  | 
 |  |  | 4 | 204 | 2030 | 945 |  | NCc1n[nH]c(=O)c2ccc(-c3cncc(Oc4cccc(Cl)c4)c3)cc12 [Example 4-67, 4-(aminomethyl)-6-(5-(3-chlorophenoxy)pyridin-3-yl)phthalazin-1(2H)-one] |  |  | 7700 | 10000
 |  |  |  |  | 615 | 25 | 2540 | Cc1cc(C#N)c(-c2c(-c3ccc4c(=O)[nH]nc(CN)c4c3)cnn2C)cc1Cl [Example 4-127, 2-(4-(4-(aminomethyl)-1-oxo-1,2-dihydrophthalazin-6-yl)-1-methyl-1H-pyrazol-5-yl)-4-chloro-5-methylbenzonitrile] |  |  | > 10000 | 5920
 |  |  |  |  | 427 | 39 | 1310 | Cn1ncc(-c2ccc3c(=O)[nH]nc(CN)c3c2)c1-c1cc2ccccc2cc1C#N [Example 4-128, 3-(4-(4-(aminomethyl)-1-oxo-1,2-dihydrophthalazin-6-yl)-1-methyl-1H-pyrazol-5-yl)-2-naphthonitrile] |  |  | 9630 | 4020
 |  |  |  |  | 1350 | 380 | 1650 | COc1cc(C#N)c(-c2c(-c3ccc4c(=O)[nH]nc(CN)c4c3)cnn2C)cc1OC [Example 4-129, 2-(4-(4-(aminomethyl)-1-oxo-1,2-dihydrophthalazin-6-yl)-1-methyl-1H-pyrazol-5-yl)-4,5-dimethoxybenzonitrile] |  |  | > 10000 | > 10000
 |  |  |  |  | 756 | 24 | 1950 | COc1cc(-c2c(-c3ccc4c(=O)[nH]nc(CN)c4c3)cnn2C)c(C#N)cc1Cl [Example 4-130, 2-(4-(4-(aminomethyl)-1-oxo-1,2-dihydrophthalazin-6-yl)-1-methyl-1H-pyrazol-5-yl)-5-chloro-4-methoxybenzonitrile] |  |  | > 10000 | > 10000
 |  |  |  |  | 416 | 8 |  | Cn1ncc(-c2ccc3c(=O)[nH]nc(CN)c3c2)c1-c1cc(C#N)c2ccccc2c1F [Example 4-210, 3-(4-(4-(aminomethyl)-1-oxo-1,2-dihydrophthalazin-6-yl)-1-methyl-1H-pyrazol-5-yl)-4-fluoro-1-naphthonitrile] |  |  | 1360 | > 1000
 |  |  |  |  | 81 | 34 |  | Cn1ncc(-c2ccc3c(=O)[nH]nc(CN)c3c2)c1-c1c(Cl)cc2ccccc2c1C#N [Example 4-215, 2-(4-(4-(aminomethyl)-1-oxo-1,2-dihydrophthalazin-6-yl)-1-methyl-1H-pyrazol-5-yl)-3-chloro-1-naphthonitrile] |  |  | 3540 | > 1000
 |  |  |  |  | 96 | 87 |  | Cn1ncc(-c2ccc3c(=O)[nH]nc(CN)c3c2)c1-c1ccc2ccc(F)cc2c1C#N [Example 4-217, 2-(4-(4-(aminomethyl)-1-oxo-1,2-dihydrophthalazin-6-yl)-1-methyl-1H-pyrazol-5-yl)-7-fluoro-1-naphthonitrile] |  |  | 2150 | > 1000
 |  |  |  |  | 75 | 12 |  | Cn1ncc(-c2ccc3c(=O)[nH]nc(CN)c3c2)c1-c1ccc2c(F)cccc2c1C#N [Example 4-223, 2-(4-(4-(aminomethyl)-1-oxo-1,2-dihydrophthalazin-6-yl)-1-methyl-1H-pyrazol-5-yl)-5-fluoro-1-naphthonitrile] |  |  | 7810 | 756
 |  |  |  |  | 416 | 10 |  | Cn1ncc(-c2ccc3c(=O)[nH]nc(CN)c3c2)c1-c1cc(F)c2ccccc2c1C#N [Example 4-224, 2-(4-(4-(aminomethyl)-1-oxo-1,2-dihydrophthalazin-6-yl)-1-methyl-1H-pyrazol-5-yl)-4-fluoro-1-naphthonitrile] |  |  | 7810 | > 1000
 |  |  |  |  | 84 | 17 |  | Cn1ncc(-c2ccc3c(=O)[nH]nc(CN)c3c2)c1-c1ccc2ncc(Cl)cc2c1C#N [Example 4-225, 6-[4-[4-(aminomethyl)-1-oxo-2H-phthalazin-6-yl]-2-methyl-pyrazol-3-yl]-3-chloro-quinoline-5-carbonitrile] |  |  | 5170 | > 1000
 |  |  |  |  | 59 | 11 |  | Cn1ncc(-c2ccc3c(=O)[nH]nc(CN)c3c2)c1-c1c(C#N)cc2ccccc2c1Cl [Example 4-229, 3-(4-(4-(aminomethyl)-1-oxo-1,2-dihydrophthalazin-6-yl)-1-methyl-1H-pyrazol-5-yl)-4-chloro-2-naphthonitrile] |  |  | 2860 | > 1000
 |  |  |  |  | 50 | 37 |  | Cn1ncc(-c2ccc3c(=O)[nH]nc(CN)c3c2)c1-c1cc2ccccc2c(OC2CC2)c1C#N [Example 4-231, 3-(4-(4-(aminomethyl)-1-oxo-1,2-dihydrophthalazin-6-yl)-1-methyl-1H-pyrazol-5-yl)-1-cyclopropoxy-2-naphthonitrile] |  |  | 3120 | > 1000
 |  |  |  |  | 51 | 14 |  | Cc1cc(OC2CC2)c(C#N)c(-c2c(-c3ccc4c(=O)[nH]nc(CN)c4c3)cnn2C)c1F [Example 4-241, 2-(4-(4-(aminomethyl)-1-oxo-1,2-dihydrophthalazin-6-yl)-1-methyl-1H-pyrazol-5-yl)-6-cyclopropoxy-3-fluoro-4-methylbenzonitrile] |  |  | 2400 | > 1000
 |  |  |  |  | 86 | 48 |  | Cn1ncc(-c2cc(Cl)c3c(=O)[nH]nc(CN)c3c2)c1-c1cc(Cl)cc(OC2CC2)c1C#N [Example 10-16, 2-(4-(4-(aminomethyl)-8-chloro-1-oxo-1,2-dihydrophthalazin-6-yl)-1-methyl-1H-pyrazol-5-yl)-4-chloro-6-cyclopropoxybenzonitrile] |  |  | 1760 | 86
 |  |  |  |  | 38 | 3 |  | Cc1cc(-c2c(-c3ccc4c(=O)[nH]nc(CN)c4c3)cnn2C)c(C#N)c2ccccc12 [Example 12-10, 2-(4-(4-(aminomethyl)-1-oxo-1,2-dihydrophthalazin-6-yl)-1-methyl-1H-pyrazol-5-yl)-4-methyl-1-naphthonitrile] |  |  | 1330 | > 1000
 |  |  |  |  | 51 | 22 |  | CCc1cc(-c2cnn(C)c2-c2ccc3ccccc3c2C#N)cc2c(CN)n[nH]c(=O)c12 [Example 15-1, 2-[4-[4-(aminomethyl)-8-ethyl-1-oxo-2H-phthalazin-6-yl]-2-methyl-pyrazol-3-yl]naphthalene-1-carbonitrile] |  |  | 1560 | > 1000
